In brackets after ≈: the same amount, converted by molar mass. Like-named read-outs stand apart in the source and are kept apart here.
Experiments:
[1] = test system: A. baumannii ATCC19606
Procedure: (§1) Antimicrobial activity was determined for all peptides on E. coli W3110, P. aeruginosa PAO1, A. baumannii ATCC19606, K. pneumoniae NCTC418, and methicillin-resistant S. aureus COL and for selected peptides on P. aeruginosa PA14 and the polymyxin B-resistant derivatives PA14 4.13, PA14 4.18, and PA14 2P4 as well as the clinical isolates ZEM-1A and ZEM9A, K. pneumoniae OXA-48, Enterobacter cloacae, Stenotrophomonas maltophilia, B. cenocepacia, and Staphylococus epidermis. To determine the MIC, the broth microdilution method was used.[75] A single bacterial colony was grown in LB medium overnight at 37 °C and 180 rpm shaking. The compounds were prepared as stock solutions of 2 mg/mL in sterilized milliQ deionized water, added to the first well of 96-well sterile, polypropylene round-bottom microtiter plates (TPP, untreated, Corning Incorporated, Kennebunk, USA), and diluted serially by 1/2. […] The bacterial inoculum was prepared by measuring the absorbance of the overnight culture, which was diluted to concentration of the bacteria was quantified by measuring absorbance at 600 nm and diluted to an OD600 of 0.022 in MH medium pH 7.4 (Sigma-Aldrich, Buchs, Switzerland). The sample solutions (150 μL) were mixed with 4 μL of diluted bacterial suspension with a final inoculation of about 5 × 10^5 CFU. For each test, two columns of the plate were kept for sterility control (MH medium only) and growth control (MH medium with bacterial inoculum, no compound). […] The plates were incubated at 37 °C for 16–20 h under static conditions. 15 μL of 3-(4,5-dimethylthiazol-2-yl)-2,5-diphenyltetrazolium bromide (MTT)[76] (1 mg/mL in sterilized milliQ deionized water) was added to each well, and the plates were incubated at room temperature until MTT staining was completed. The MIC was defined as the lowest concentration of the dendrimer that inhibits the visible growth of the tested bacteria (yellow) with the unaided eye.

[2] = test system: E. coli W3110
Procedure: as §1

[3] = test system: K. pneumoniae NCTC418
Procedure: as §1

[4] = test system: P. aeruginosa PAO1
Procedure: as §1

[5] = test system: S. aureus COL MRSA; settings: for MIC S. aureus COL MRSA: MH broth pH 7.4, 16–20 h, 37 °C; for MIC S. aureus COL: supplementary CSV, ranges of Table 1 given as one number
Procedure: as §1

[6] = MH broth pH 7.4, 16–20 h, 37 °C
[7] = supplementary CSV, ranges of Table 1 given as one number

Compound | MIC A. baumannii ATCC19606 [1, 6] [µg/mL] | MIC A. baumannii ATCC19606 [1, 7] [µg/mL] | MIC E. coli W3110 [2, 6] [µg/mL] | MIC K. pneumoniae NCTC418 [3, 6] [µg/mL] | MIC P. aeruginosa PAO1 [4, 6] [µg/mL] | MIC P. aeruginosa PAO1 [4, 7] [µg/mL] | MIC S. aureus COL MRSA [5] [µg/mL] | MIC S. aureus COL [5] [µg/mL] | MIC K. pneumoniae NCTC418 [3, 7] [µg/mL] | MIC E. coli W3110 [2, 7] [µg/mL]
CC(C)C[C@H](NC(=O)[C@H](CC(C)C)NC(=O)[C@H](CC(C)C)NC(=O)[C@H](CCCCN)NC(=O)[C@@H](CC(C)C)NC(=O)[C@@H](CC(C)C)NC(=O)[C@H](CCCCN)NC(=O)[C@@H](CC(C)C)NC(=O)[C@@H](CC(C)C)NC(=O)[C@H](CCCCN)NC(=O)[C@@H](N)CCCCN)C(N)=O [HP14, KKllKllKLLL] | 4 to 8 | 6 (≈ 4.54 µM) | 2 (≈ 1.51 µM) | >64 | 8 (≈ 6.05 µM) | 8 (≈ 6.05 µM) | 16 to 32 | – | – | –
CC(C)C[C@H](NC(=O)[C@@H](CC(C)C)NC(=O)[C@H](CC(C)C)NC(=O)[C@@H](CCCCN)NC(=O)[C@H](CC(C)C)NC(=O)[C@@H](CC(C)C)NC(=O)[C@H](CCCCN)NC(=O)[C@@H](CC(C)C)NC(=O)[C@H](CC(C)C)NC(=O)[C@@H](CCCCN)NC(=O)[C@@H](N)CCCCN)C(N)=O [HP30, KkLlKlLkLlL] | 32 (≈ 24.2 µM) | 32 (≈ 24.2 µM) | 8 (≈ 6.05 µM) | >64 | 8 to 16 | 12 (≈ 9.08 µM) | 64 (≈ 48.4 µM) | 64 (≈ 48.4 µM) | – | –
CC(C)C[C@H](NC(=O)[C@@H](CC(C)C)NC(=O)[C@H](CCCCN)NC(=O)[C@@H](CC(C)C)NC(=O)[C@H](CC(C)C)NC(=O)[C@@H](CCCCN)NC(=O)[C@H](CC(C)C)NC(=O)[C@@H](CC(C)C)NC(=O)[C@H](CCCCN)NC(=O)[C@H](N)CCCCN)C(=O)N[C@H](CC(C)C)C(N)=O [HP31, kKlLkLlKlLl] | 32 (≈ 24.2 µM) | 32 (≈ 24.2 µM) | 8 (≈ 6.05 µM) | >64 | 8 (≈ 6.05 µM) | 8 (≈ 6.05 µM) | 32 (≈ 24.2 µM) | 32 (≈ 24.2 µM) | – | –
CC(C)C[C@H](NC(=O)[C@@H](CC(C)C)NC(=O)[C@@H](CC(C)C)NC(=O)[C@H](CCCCN)NC(=O)[C@H](CC(C)C)NC(=O)[C@H](CC(C)C)NC(=O)[C@H](CCCCN)NC(=O)[C@H](CC(C)C)NC(=O)[C@@H](CC(C)C)NC(=O)[C@@H](CCCCN)NC(=O)[C@@H](N)CCCCN)C(N)=O [HP17, KklLKLLKllL] | 32 (≈ 24.2 µM) | 32 (≈ 24.2 µM) | 8 (≈ 6.05 µM) | 32 to 64 | 16 (≈ 12.1 µM) | 16 (≈ 12.1 µM) | 32 to 64 | 48 (≈ 36.3 µM) | 48 (≈ 36.3 µM) | –
CC(C)CC(NC(=O)C(CC(C)C)NC(=O)C(CC(C)C)NC(=O)C(CCCCN)NC(=O)C(CC(C)C)NC(=O)C(CC(C)C)NC(=O)C(CCCCN)NC(=O)C(CC(C)C)NC(=O)C(CC(C)C)NC(=O)C(CCCCN)NC(=O)C(N)CCCCN)C(N)=O (racemic) [sr-ln65] | 4 (≈ 3.03 µM) | – | 4 (≈ 3.03 µM) | 16 to 32 | 4 (≈ 3.03 µM) | – | 8 (≈ 6.05 µM) | – | – | –
CC(C)C[C@H](NC(=O)[C@H](CC(C)C)NC(=O)[C@@H](CCCCN)NC(=O)[C@H](CC(C)C)NC(=O)[C@H](CC(C)C)NC(=O)[C@@H](CCCCN)NC(=O)[C@@H](CC(C)C)NC(=O)[C@H](CC(C)C)NC(=O)[C@H](CCCCN)NC(=O)[C@@H](N)CCCCN)C(=O)N[C@H](CC(C)C)C(N)=O [HP23, KKLlkLLkLLl] | – | – | 2 (≈ 1.51 µM) | >64 | 4 to 8 | 6 (≈ 4.54 µM) | 32 (≈ 24.2 µM) | 32 (≈ 24.2 µM) | – | –
CC(C)C[C@H](NC(=O)[C@H](CC(C)C)NC(=O)[C@H](CC(C)C)NC(=O)[C@H](CCCCN)NC(=O)[C@@H](CC(C)C)NC(=O)[C@@H](CC(C)C)NC(=O)[C@@H](CCCCN)NC(=O)[C@H](CC(C)C)NC(=O)[C@H](CC(C)C)NC(=O)[C@H](CCCCN)NC(=O)[C@@H](N)CCCCN)C(N)=O [HP9, KKLLkllKLLL] | – | – | 8 (≈ 6.05 µM) | >64 | 64 (≈ 48.4 µM) | 64 (≈ 48.4 µM) | >64 | – | – | –
CC(C)C[C@H](NC(=O)[C@H](CC(C)C)NC(=O)[C@H](CC(C)C)NC(=O)[C@H](CCCCN)NC(=O)[C@@H](CC(C)C)NC(=O)[C@@H](CC(C)C)NC(=O)[C@H](CCCCN)NC(=O)[C@H](CC(C)C)NC(=O)[C@H](CC(C)C)NC(=O)[C@H](CCCCN)NC(=O)[C@@H](N)CCCCN)C(N)=O [HP6, KKLLKllKLLL] | 4 (≈ 3.03 µM) | 4 (≈ 3.03 µM) | 2 (≈ 1.51 µM) | 64 (≈ 48.4 µM) | 8 (≈ 6.05 µM) | 8 (≈ 6.05 µM) | 16 (≈ 12.1 µM) | 16 (≈ 12.1 µM) | 64 (≈ 48.4 µM) | –
CC(C)C[C@H](NC(=O)[C@H](CC(C)C)NC(=O)[C@H](CC(C)C)NC(=O)[C@H](CCCCN)NC(=O)[C@H](CC(C)C)NC(=O)[C@@H](CC(C)C)NC(=O)[C@H](CCCCN)NC(=O)[C@@H](CC(C)C)NC(=O)[C@@H](CC(C)C)NC(=O)[C@@H](CCCCN)NC(=O)[C@@H](N)CCCCN)C(N)=O [HP12, KkllKlLKLLL] | 8 (≈ 6.05 µM) | 8 (≈ 6.05 µM) | 2 to 4 | 8 to 16 | 4 to 8 | 6 (≈ 4.54 µM) | 4 (≈ 3.03 µM) | 4 (≈ 3.03 µM) | – | 3 (≈ 2.27 µM)
CC(C)C[C@H](NC(=O)[C@H](CC(C)C)NC(=O)[C@@H](CCCCN)NC(=O)[C@H](CC(C)C)NC(=O)[C@H](CC(C)C)NC(=O)[C@@H](CCCCN)NC(=O)[C@H](CC(C)C)NC(=O)[C@H](CC(C)C)NC(=O)[C@@H](CCCCN)NC(=O)[C@H](N)CCCCN)C(=O)N[C@H](CC(C)C)C(N)=O [HP27, kkLLkLLkLLl] | 32 (≈ 24.2 µM) | 32 (≈ 24.2 µM) | 4 (≈ 3.03 µM) | >64 | 8 (≈ 6.05 µM) | 8 (≈ 6.05 µM) | 32 (≈ 24.2 µM) | 32 (≈ 24.2 µM) | – | –
CC(C)CC(NC(=O)C(CC(C)C)NC(=O)C(CC(C)C)NC(=O)C(CCCCN)NC(=O)C(CC(C)C)NC(=O)[C@H](CC(C)C)NC(=O)C(CCCCN)NC(=O)C(CC(C)C)NC(=O)C(CC(C)C)NC(=O)C(CCCCN)NC(=O)C(N)CCCCN)C(N)=O (mixture of isomers) [sr-ln65L^6] | 8 (≈ 6.05 µM) | 8 (≈ 6.05 µM) | 4 (≈ 3.03 µM) | 16 to 32 | 8 (≈ 6.05 µM) | 8 (≈ 6.05 µM) | 16 (≈ 12.1 µM) | 16 (≈ 12.1 µM) | – | –
CC(C)C[C@H](NC(=O)[C@H](CC(C)C)NC(=O)[C@@H](CC(C)C)NC(=O)[C@@H](CCCCN)NC(=O)[C@H](CC(C)C)NC(=O)[C@H](CC(C)C)NC(=O)[C@H](CCCCN)NC(=O)[C@@H](CC(C)C)NC(=O)[C@@H](CC(C)C)NC(=O)[C@H](CCCCN)NC(=O)[C@@H](N)CCCCN)C(N)=O [HP20, KKllKLLklLL] | 32 to 64 | 48 (≈ 36.3 µM) | 8 (≈ 6.05 µM) | >64 | 16 (≈ 12.1 µM) | 16 (≈ 12.1 µM) | >64 | – | – | –
CC(C)C[C@@H](NC(=O)[C@@H](CC(C)C)NC(=O)[C@@H](CC(C)C)NC(=O)[C@@H](CCCCN)NC(=O)[C@@H](CC(C)C)NC(=O)[C@@H](CC(C)C)NC(=O)[C@@H](CCCCN)NC(=O)[C@@H](CC(C)C)NC(=O)[C@@H](CC(C)C)NC(=O)[C@@H](CCCCN)NC(=O)[C@H](N)CCCCN)C(N)=O [dln65, kkllkllklll] | 4 (≈ 3.03 µM) | 4 (≈ 3.03 µM) | 2 to 4 | 4 (≈ 3.03 µM) | 2 to 4 | 3 (≈ 2.27 µM) | 2 to 4 | 3 (≈ 2.27 µM) | 4 (≈ 3.03 µM) | 3 (≈ 2.27 µM)
